In article PMC8693680 (RSC Advances, 2021):

Molecular target: Bovine serum albumin (BSA) (Bos taurus, UniProt P02769)
Experiment: Trp fluorescence quenching
Assay type: binding
Details: 5 μM BSA, 0-15 μM dye, 10 mM HEPES pH 7.4, 298 K; double-log; n = 0.35

Bovine serum albumin (BSA), sequence (P02769 25-607): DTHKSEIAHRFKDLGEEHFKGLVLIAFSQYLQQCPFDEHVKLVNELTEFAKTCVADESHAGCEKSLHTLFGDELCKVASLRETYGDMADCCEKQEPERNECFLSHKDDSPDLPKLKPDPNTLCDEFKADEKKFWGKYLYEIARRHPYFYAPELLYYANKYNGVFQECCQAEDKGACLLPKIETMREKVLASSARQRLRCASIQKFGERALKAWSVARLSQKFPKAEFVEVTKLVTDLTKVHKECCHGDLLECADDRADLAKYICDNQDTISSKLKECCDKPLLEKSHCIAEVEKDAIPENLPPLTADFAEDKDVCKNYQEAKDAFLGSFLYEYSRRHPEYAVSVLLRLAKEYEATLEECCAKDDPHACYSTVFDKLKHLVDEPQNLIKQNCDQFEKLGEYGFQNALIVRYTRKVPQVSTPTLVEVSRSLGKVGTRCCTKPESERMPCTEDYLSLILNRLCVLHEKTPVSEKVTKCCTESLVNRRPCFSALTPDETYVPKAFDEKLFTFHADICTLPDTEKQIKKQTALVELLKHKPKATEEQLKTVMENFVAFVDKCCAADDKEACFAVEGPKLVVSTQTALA

c1ccc2c(c1)Nc1ccccc1S2 [PTZ]
Binding constant, K′: 6190 M⁻¹
